Laboratory results taken from patent US20220194945A1, “Imidazolopyridine Compounds For IRE1 Inhibition” (Optikira, LLC, priority 2019, published 2022).

Columns and labels:
XBP1 splicing = test: Cellular XBP1 splicing assay; format: cell-based; details: ARPE-19 cells stably expressing XBP1-nano-luciferase, thapsigargin 150 nM, 4 hour incubation
Protocol: Cellular XBP1 Splicing Assay
ARPE-19 cells stably expressing XBP1 (a.a. 1-376) with nano-luciferase gene sequence linked so it is in frame when XBP1 is spliced, were cultured in F12 media, 10% FBS, 0.044% sodium bicarbonate, 150 μg/ml hygromycin B and seeded for assays at 5,000 cells in 384 well plates in culture media without hygromycin B and incubated at 37° C./5% CO2. After overnight incubation test compounds were added to the cell plate in a 10-point ½ log dilution series in duplicate (final DMSO concentration 0.117%). After further incubation of 30 minutes thapsigargin was added (final concentration 150 nM) and then another 4 hour incubation. A NanoLuc luciferase assay (Promega) was used according to the manufacturer's instructions to detect the luciferase and luminescence measured on a luminometer (EnVision, PerkinElmer). IC50 values calculated by fitting a sigmoidal curve to percent inhibition of control of compound concentration.
(§1) In vitro assay data are for the inhibition of RNase activity of IRE1α. Cellular assay (IC50 data) are for the XBP1 splicing assay.

IRE1α = target: T1, IRE1α (Homo sapiens, UniProt O75460); test: Biochemical assay: inhibition of RNase activity of IRE1α; details: IRE1α kinase (E31-11G, Signal Chem) 0.325 nM, substrate 100 nM, 30 min pre-incubation, read-out: In vitro assay IC50
T1 construct: purchased Signal Chem E31-11G
Protocol: Biochemical Assay: Inhibition of RNase activity of IRE1α
The RNase reactions were performed in 384 well black ProxiPlate-384 Plus plates (PERKIN Elmer) using 50 mM Tris assay buffer with 0.5 mM MgCl2, 10 mM KCl, 0.03% Tween, 2 mM DTT and 1% DMSO. Test compounds were prepared on the day of assay and dispensed using D300 digital dispenser as a 10-point ½ log dilution series in duplicate, normalized to a final DMSO concentration of […]. Test compounds were pre-incubated for 30 min at room temperature with IRE1α kinase (E31-11G from Signal Chem) in 2.5 μL of assay buffer. Then 2.5 μl of assay buffer containing substrate (5′ Alexa Fluor 647-rCrArU rGrUrC rCrGrC rArGrC rGrCrArUrG-Iowa Black RQ quencher 3′) added, giving a final concentration of enzyme of 0.325 nM and of substrate of 100 nM. After 20 minutes incubation at room temperature the reactions were stopped by added 5 μL of 5M urea, incubated at room temperature for 10 minutes and fluorescence measured on a plate reader (EnVision, PerkinElmer) IC50 values calculated by fitting a sigmoidal curve to percent inhibition of control versus compound concentration.
as §1

T1 sequence (O75460 468-977 limits assumed): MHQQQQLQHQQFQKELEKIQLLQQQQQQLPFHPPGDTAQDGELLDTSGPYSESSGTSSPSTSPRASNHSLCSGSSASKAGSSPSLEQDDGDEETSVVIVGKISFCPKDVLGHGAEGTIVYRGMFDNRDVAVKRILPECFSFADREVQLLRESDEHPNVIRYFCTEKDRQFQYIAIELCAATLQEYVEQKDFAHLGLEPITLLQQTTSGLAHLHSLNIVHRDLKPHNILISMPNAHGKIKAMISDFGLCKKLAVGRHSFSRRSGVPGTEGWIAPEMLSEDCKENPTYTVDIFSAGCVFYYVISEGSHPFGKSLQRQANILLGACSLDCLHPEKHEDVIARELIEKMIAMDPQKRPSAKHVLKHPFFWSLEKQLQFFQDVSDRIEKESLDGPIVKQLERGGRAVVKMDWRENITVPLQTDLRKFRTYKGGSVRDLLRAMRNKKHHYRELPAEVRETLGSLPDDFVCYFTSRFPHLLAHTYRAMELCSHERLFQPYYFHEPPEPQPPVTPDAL

## CC(C)c1nc(-c2ccc(NS(=O)(=O)c3ccccc3Cl)c(F)c2)c2c(N)ncc([C@H]3CC[C@@H](N)CC3)n12 [Example 1, N-(4-(8-Amino-5-((1s,4s)-4-aminocyclohexyl)-3-isopropylimidazo[1,5-a]pyrazin-1-yl)-2-fluorophenyl)-2-chlorobenzenesulfonamide]
XBP1 splicing; Homo sapiens
  IC50: 510 nM
IRE1α
  IC50: 290 nM

## CC(C)c1nc(-c2ccc(NS(=O)(=O)c3ccccc3Cl)c(F)c2)c2c(N)ncc([C@H]3CC[C@H](N)CC3)n12 [Example 2, N-(4-(8-Amino-5-((1r,4r)-4-aminocyclohexyl)-3-isopropylimidazo[1,5-a]pyrazin-1-yl)-2-fluorophenyl)-2-chlorobenzenesulfonamide]
XBP1 splicing; Homo sapiens
  IC50: 15 nM
IRE1α
  IC50: 15 nM

## CC(C)c1nc(-c2ccc(NS(=O)(=O)c3ccccc3Cl)c(F)c2)c2c(N)ncc([C@H]3CC[C@@H](NC4COC4)CC3)n12 [Example 3, N-(4-(8-Amino-3-isopropyl-5-((1s,4s)-4-(oxetan-3-ylamino)cyclohexyl)imidazo[1,5-a]pyrazin-1-yl)-2-fluorophenyl)-2-chlorobenzenesulfonamide]
XBP1 splicing; Homo sapiens
  IC50: 300 nM
IRE1α
  IC50: 280 nM

## CC(C)c1nc(-c2ccc(NS(=O)(=O)c3ccccc3Cl)c(F)c2)c2c(N)ncc([C@H]3CC[C@H](NC4COC4)CC3)n12 [Example 4, N-(4-(8-Amino-3-isopropyl-5-((1r,4r)-4-(oxetan-3-ylamino)cyclohexyl)imidazo[1,5-a]pyrazin-1-yl)-2-fluorophenyl)-2-chlorobenzene sulfonamide]
XBP1 splicing
  IC50: 5 nM
IRE1α
  IC50: 6.4 nM

## CC(C)c1nc(-c2ccc(NS(=O)(=O)c3ccccc3F)c(F)c2)c2c(N)ncc(C3=CCC(NC4COC4)CC3)n12 (centres unmarked) [Example 6, N-(4-(8-Amino-3-isopropyl-5-(4-(oxetan-3-ylamino)cyclohex-1-en-1-yl)imidazo[1,5-a]pyrazin-1-yl)-2-fluorophenyl)-2-fluorobenzenesulfonamide]
XBP1 splicing; Homo sapiens
  IC50: 98 nM
IRE1α
  IC50: 150 nM

## CC(C)c1nc(-c2cc(F)c(NS(=O)(=O)c3ccccc3F)cc2F)c2c(N)ncc(C3=CCC(NC4COC4)CC3)n12 (centres unmarked) [Example 7, N-(4-(8-Amino-3-isopropyl-5-(4-(oxetan-3-ylamino)cyclohex-1-en-1-yl)imidazo[1,5-a]pyrazin-1-yl)-2,5-difluorophenyl)-2-fluorobenzenesulfonamide]
XBP1 splicing; Homo sapiens
  IC50: 540 nM
IRE1α
  IC50: 150 nM

## CC(C)c1nc(-c2cc(F)c(NS(=O)(=O)c3ccccc3Cl)cc2F)c2c(N)ncc(C3=CCC(NC4COC4)CC3)n12 (centres unmarked) [Example 8, N-(4-(8-Amino-3-isopropyl-5-(4-(oxetan-3-ylamino)cyclohex-1-en-1-yl)imidazo[1,5-a]pyrazin-1-yl)-2,5-difluorophenyl)-2-chlorobenzenesulfonamide]
XBP1 splicing; Homo sapiens
  IC50: 170 nM
IRE1α
  IC50: 110 nM

## CC(C)c1nc(-c2ccc(NS(=O)(=O)c3ccccc3F)c(F)c2Cl)c2c(N)ncc(C3=CCC(NC4COC4)CC3)n12 (centres unmarked) [Example 9, N-(4-(8-Amino-3-isopropyl-5-(4-(oxetan-3-ylamino)cyclohex-1-en-1-yl)imidazo[1,5-a]pyrazin-1-yl)-3-chloro-2-fluorophenyl)-2-fluorobenzenesulfonamide]
XBP1 splicing; Homo sapiens
  IC50: 760 nM
IRE1α
  IC50: 69 nM

## CC(C)c1nc(-c2cnc(NS(=O)(=O)c3ccccc3Cl)c(F)c2)c2c(N)ncc(C3=CCC(NC4COC4)CC3)n12 (centres unmarked) [Example 10, N-(5-(8-Amino-3-isopropyl-5-(4-(oxetan-3-ylamino)cyclohex-1-en-1-yl)imidazo[1,5-a]pyrazin-1-yl)-3-fluoropyridin-2-yl)-2-chlorobenzenesulfonamide]
XBP1 splicing; Homo sapiens
  IC50: 7700 nM
IRE1α
  IC50: 61 nM

## COc1ccc(S(=O)(=O)Nc2ccc(-c3nc(C(C)C)n4c(C5=CCC(NC6COC6)CC5)cnc(N)c34)cc2F)cn1 (centres unmarked) [Example 11, N-(4-(8-Amino-3-isopropyl-5-(4-(oxetan-3-ylamino)cyclohex-1-en-1-yl)imidazo[1,5-a]pyrazin-1-yl)-2-fluorophenyl)-6-methoxypyridine-3-sulfonamide]
XBP1 splicing; Homo sapiens
  IC50: 3100 nM
IRE1α
  IC50: 420 nM

## CC(C)c1nc(-c2ccc(NS(=O)(=O)c3ccc(C(F)(F)F)nc3)c(F)c2)c2c(N)ncc(C3=CCC(NC4COC4)CC3)n12 (centres unmarked) [Example 12, N-(4-(8-Amino-3-isopropyl-5-(4-(oxetan-3-ylamino)cyclohex-1-en-1-yl)imidazo[1,5-a]pyrazin-1-yl)-2-fluorophenyl)-6-(trifluoromethyl)pyridine-3-sulfonamide]
XBP1 splicing; Homo sapiens
  IC50: 6600 nM
IRE1α
  IC50: 140 nM

## Cc1cncc(S(=O)(=O)Nc2ccc(-c3nc(C(C)C)n4c(C5=CCC(NC6COC6)CC5)cnc(N)c34)cc2F)c1 (centres unmarked) [Example 13, N-(4-(8-Amino-3-isopropyl-5-(4-(oxetan-3-ylamino)cyclohex-1-en-1-yl)imidazo[1,5-a]pyrazin-1-yl)-2-fluorophenyl)-5-methylpyridine-3-sulfonamide]
XBP1 splicing; Homo sapiens
  IC50: 6400 nM
IRE1α
  IC50: 360 nM

## CC(C)c1nc(-c2ccc(NS(=O)(=O)c3ccccn3)c(F)c2)c2c(N)ncc(C3=CCC(NC4COC4)CC3)n12 (centres unmarked) [Example 14, N-(4-(8-Amino-3-isopropyl-5-(4-(oxetan-3-ylamino)cyclohex-1-en-1-yl)imidazo[1,5-a]pyrazin-1-yl)-2-fluorophenyl)pyridine-2-sulfonamide]
XBP1 splicing; Homo sapiens
  IC50: 5400 nM

## Cc1nc(S(=O)(=O)Nc2ccc(-c3nc(C(C)C)n4c(C5=CCC(NC6COC6)CC5)cnc(N)c34)cc2F)cs1 (centres unmarked) [Example 15, N-(4-(8-Amino-3-isopropyl-5-(4-(oxetan-3-ylamino)cyclohex-1-en-1-yl)imidazo[1,5-a]pyrazin-1-yl)-2-fluorophenyl)-2-methylthiazole-4-sulfonamide]
XBP1 splicing; Homo sapiens
  IC50: 6500 nM
IRE1α
  IC50: 480 nM

## CC(C)c1nc(-c2ccc(NS(=O)(=O)c3ccccc3Cl)c(F)c2)c2c(N)ncc(C3=CCC(NCCS(C)(=O)=O)CC3)n12 (centres unmarked) [Example 16, N-(4-(8-Amino-3-isopropyl-5-(4-((2-(methylsulfonyl)ethyl)amino)cyclohex-1-en-1-yl)imidazo[1,5-a]pyrazin-1-yl)-2-fluorophenyl)-2-chlorobenzenesulfonamide]
XBP1 splicing; Homo sapiens
  IC50: 110 nM
IRE1α
  IC50: 11 nM

## Cc1nc(CS(=O)(=O)Nc2ccc(-c3nc(C(C)C)n4c(C5=CCC(N)CC5)cnc(N)c34)cc2F)cs1 (centres unmarked) [Example 17, N-(4-(8-Amino-5-(4-aminocyclohex-1-en-1-yl)-3-isopropylimidazo[1,5-a]pyrazin-1-yl)-2-fluorophenyl)-1-(2-methylthiazol-4-yl)methanesulfonamide]
XBP1 splicing; Homo sapiens
  IC50: 7450 nM
IRE1α
  IC50: 40 nM

## CC(C)c1nc(-c2ccc(NS(=O)(=O)c3ccccc3Cl)c(F)c2)c2c(N)ncc(C3=CCC(N4CCOCC4)CC3)n12 (centres unmarked) [Example 18, N-(4-(8-Amino-3-isopropyl-5-(4-morpholinocyclohex-1-en-1-yl)imidazo[1,5-a]pyrazin-1-yl)-2-fluorophenyl)-2-chlorobenzenesulfonamide]
XBP1 splicing; Homo sapiens
  IC50: 85 nM
IRE1α
  IC50: 82 nM

## COCCNC1CC=C(c2cnc(N)c3c(-c4ccc(NS(=O)(=O)c5ccccc5Cl)c(F)c4)nc(C(C)C)n23)CC1 (centres unmarked) [Example 19, N-(4-(8-amino-3-isopropyl-5-(4-((2-methoxyethyl)amino)cyclohex-1-en-1-yl)imidazo[1,5-a]pyrazin-1-yl)-2-fluorophenyl)-2-chlorobenzenesulfonamide]
XBP1 splicing; Homo sapiens
  IC50: 41 nM
IRE1α
  IC50: 44 nM

## COc1nc(NS(=O)(=O)c2ccccc2Cl)ccc1-c1nc(C(C)C)n2c(C3=CCC(NC4COC4)CC3)cnc(N)c12 (centres unmarked) [Example 20, N-(5-(8-amino-3-isopropyl-5-(4-(oxetan-3-ylamino)cyclohex-1-en-1-yl)imidazo[1,5-a]pyrazin-1-yl)-6-methoxypyridin-2-yl)-2-chlorobenzenesulfonamide]
XBP1 splicing; Homo sapiens
  IC50: > 10000 nM
IRE1α
  IC50: > 1000 nM

## Cc1nc(NS(=O)(=O)c2ccccc2Cl)ccc1-c1nc(C(C)C)n2c(C3=CCC(NC4COC4)CC3)cnc(N)c12 (centres unmarked) [Example 21, N-(5-(8-amino-3-isopropyl-5-(4-(oxetan-3-ylamino)cyclohex-1-en-1-yl)imidazo[1,5-a]pyrazin-1-yl)-6-methylpyridin-2-yl)-2-chlorobenzenesulfonamide]
XBP1 splicing; Homo sapiens
  IC50: 6100 nM
IRE1α
  IC50: > 1000 nM

## CC(C)c1nc(-c2ccc(NS(=O)(=O)Cc3ccccc3Cl)c(F)c2)c2c(N)ncc(C3=CCC(N(C)C)CC3)n12 (centres unmarked) [Example 22]
XBP1 splicing; Homo sapiens
  IC50: 1.7 nM
IRE1α
  IC50: 1.5 nM
